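A five-concentration, 48-hour dose response in 96-well plates underlies each endpoint, interpolated linearly between surrounding concentrations. Here, GI50 denotes the concentration required for 50% inhibition of growth. TGI: total growth inhibition.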
Experiments:
Assay in all cases: growth of human tumour cells (NCI), 48 h
EKVX NSCLC = test system: EKVX NSCLC
SR leukemia = test system: SR leukemia
SF-295 CNS = test system: SF-295 CNS
SW-620 colon = test system: SW-620 colon
SNB-75 CNS = test system: SNB-75 CNS
HL-60(TB) leukemia = test system: HL-60(TB) leukemia
NCI-H226 lung = test system: NCI-H226 lung
HCT-116 colon = test system: HCT-116 colon
SK-OV-3 ovarian = test system: SK-OV-3 ovarian
MDA-MB-231 breast = test system: MDA-MB-231 breast

Row | SMILES | TGI (EKVX NSCLC) [µM] | TGI (SR leukemia) [µM] | TGI (SF-295 CNS) [µM] | TGI (SW-620 colon) [µM] | TGI (SNB-75 CNS) [µM] | TGI (HL-60(TB) leukemia) [µM] | TGI (NCI-H226 lung) [µM] | TGI (HCT-116 colon) [µM] | TGI (SK-OV-3 ovarian) [µM] | GI50 (SF-295 CNS) [µM] | GI50 (SW-620 colon) [µM] | GI50 (SNB-75 CNS) [µM] | GI50 (NCI-H226 lung) [µM] | GI50 (MDA-MB-231 breast) [µM] | TGI (MDA-MB-231 breast) [µM] | GI50 (SK-OV-3 ovarian) [µM] | GI50 (HL-60(TB) leukemia) [µM] | GI50 (EKVX NSCLC) [µM] | GI50 (HCT-116 colon) [µM] | GI50 (SR leukemia) [µM]
1 | CN(C)c1ccc(/C=N\N2C(=O)c3ccccc3C2=O)cc1 | > 100 | > 100 | > 100 | > 100 | > 100 | > 100 | > 100 | > 100 | – | – | – | – | – | – | – | – | – | – | – | –
2 | CN(C)c1n/c(=N/c2ncn[nH]2)ss1 | > 100 | > 100 | > 100 | > 100 | > 100 | > 100 | > 100 | > 100 | > 100 | – | – | – | – | – | – | – | – | – | – | –
3 | CNCCCNc1nc2ccccc2c2c(=O)c3cc(Cl)ccc3sc12 | – | – | 3.27 | 3.09 | 2.61 | – | 47.1 | – | 2.89 | 1.74 | 1.62 | 1.31 | 4.58 | 1.33 | 2.67 | 1.47 | – | – | – | –
4 | COC1=Nc2ccccc2S(=O)(=O)C=C1 | 32.1 | – | > 88.1 | 3.46 | 17.5 | – | > 100 | 3.46 | > 100 | – | 0.875 | – | – | – | 27.2 | – | 1.95 | – | – | –
5 | O=C(NNC(=O)c1cc(/C=C/c2cccc([N+](=O)[O-])c2)[nH]c(=S)n1)Nc1ccc(Cl)cc1 | > 100 | 9.76 | > 100 | – | > 100 | 84.1 | > 100 | 60.9 | > 100 | – | – | – | – | – | – | – | – | – | – | –
6 | COC(OC)[C@@H](C)[C@H](O)[C@](C)(O)C1OC(C)(C)OC(C(C)C=C(C)C)C1C (stereo partly specified) | > 100 | > 100 | > 100 | > 100 | > 100 | > 100 | > 100 | > 100 | > 100 | – | – | – | – | – | – | – | – | – | – | –
7 | COc1ccc(-c2ccc(/C=N/n3c(C)nn(CN4CCN(C)CC4)c3=S)o2)c([N+](=O)[O-])c1 | > 100 | – | 48.2 | > 100 | – | 33.3 | – | 57.8 | > 100 | 18.3 | > 100 | – | – | – | – | 45 | 14.9 | > 100 | 21.7 | –
8 | CCCCCC/C=C\CCCCCCCCCC1=CC(=O)C=C(OC)C1=O | 12.5 | 20.2 | 13.2 | 17.5 | 8.07 | – | 11.1 | 12.2 | 16 | – | – | – | – | – | 18.4 | – | – | – | – | –
9 | O=C(NO)C(=O)Nc1ccc(Cl)cc1[N+](=O)[O-] | > 100 | > 100 | > 100 | > 100 | > 100 | > 100 | > 100 | > 100 | > 100 | – | – | – | – | – | – | – | – | – | – | –
10 | CCCCn1sc(=O)n(Cc2ccc(CNC(=O)OCc3ccc4c(Br)cc(Br)c(O)c4n3)cc2)c1=O | > 100 | > 100 | > 24.5 | > 100 | > 100 | – | – | > 100 | > 100 | 4.09 | 0.42 | 0.499 | – | 0.475 | > 51.1 | 1.72 | 0.374 | > 40.6 | 0.344 | 0.404
11 | O=C(NCCCCCCCCNC(=O)c1cccc2ccccc12)c1cccc2ccccc12 | > 91.7 | > 100 | > 56.1 | > 100 | 13.2 | > 100 | 22.8 | > 83.4 | 41.6 | – | – | – | – | – | – | – | – | – | – | –
12 | CCCCCCCCCCCCN(O)C(=O)c1ccccc1 | 84.2 | > 100 | > 100 | > 100 | 82.7 | 54.8 | – | > 100 | 92.1 | – | – | – | – | – | – | – | – | – | – | –
13 | O=[N+]([O-])c1ccc(Sc2c3ccccc3nc3ccccc23)nc1 | 31 | > 21.3 | 51.1 | 4.79 | 29.2 | – | 35.8 | 4.22 | 17.7 | – | – | – | – | – | 15.4 | – | – | – | – | –
14 | O=C1c2c(O)cc(O)cc2OC(c2ccc(O)cc2O)C1O (stereo unspecified) | > 100 | – | > 100 | > 100 | > 100 | > 100 | > 100 | > 100 | > 100 | – | > 100 | > 100 | > 100 | – | > 100 | > 100 | > 100 | – | > 100 | –
15 | CCOC(=O)NC(=O)c1cn(CCN2CCN(C(=O)CCCCCCCCCCNc3ncnc4nc[nH]c34)CC2)c(=O)[nH]c1=O | > 100 | > 100 | > 100 | > 100 | > 100 | > 100 | > 100 | > 100 | > 100 | – | – | – | – | – | – | – | – | – | – | –
16 | COc1ccc(/C(=N/NC(N)=O)C(c2ccc(OC)cc2)C2C(=O)Oc3ccccc32)cc1 (stereo unspecified) | – | > 100 | > 100 | > 100 | > 100 | > 100 | > 100 | > 100 | > 100 | – | – | – | – | – | – | – | – | – | – | –
17 | Cc1cc(C)c(S(=O)(=O)ONC(=O)OC(C)(C)C)c(C)c1 | > 100 | – | > 100 | > 100 | > 100 | > 100 | – | > 100 | > 100 | – | – | – | – | – | – | – | – | – | – | –
18 | COc1cc(-c2cc(=O)c3cc(C)c(C)c(C(=O)O)c3o2)cc(OC)c1OC | > 100 | – | > 100 | > 100 | 55.9 | – | – | > 100 | > 100 | – | – | – | – | – | – | – | – | – | – | –
19 | Nc1nnc(Cn2c(-c3ccccc3)nc3ccc(Br)cc3c2=O)s1 | > 100 | – | > 100 | > 100 | > 100 | – | – | 50.3 | > 100 | 26.2 | 36.1 | > 100 | – | 36.2 | > 100 | > 100 | – | > 100 | 13.6 | –
20 | O=C(O)Cn1c(=O)[nH]c(=O)c2c1ncn2Cc1ccccc1 | > 100 | > 100 | – | > 100 | > 100 | – | > 100 | > 100 | > 100 | – | – | – | – | – | – | – | – | – | – | –
21 | Cc1ccc(C)c(NC(=O)CCc2nc(=S)[nH][nH]2)c1 | > 100 | > 100 | > 100 | 33 | > 100 | – | > 100 | > 100 | > 100 | – | – | – | – | – | – | – | – | – | – | –
22 | O=C(CC(=O)C1CCOC1=O)C(=O)Nc1ccc(Cl)cc1Cl (stereo unspecified) | > 100 | – | > 100 | > 100 | > 100 | > 100 | > 100 | > 100 | > 100 | – | – | – | – | – | – | – | – | – | – | –

Source: PubChem BioAssay (NCI)
